How the values were obtained:
IDO [1] = target: T1, IDO (Homo sapiens, UniProt P14902); assay: LLE_IDO_ABS_DR (IDO assay)
IDO [2] = target: T1, IDO; assay: Kynurenine assay in Hela cells stimulated with IFN-γ to express IDO; assay type: cell-based; set-up: endogenous in cells; host or cells: HeLa (ATCC CCL-2), stimulated with human recombinant IFN-gamma; conditions: 20 h, read-out: Hela Kyurenine (IC50)
Procedure: IFNg (R&D, 28-IF-100)—resuspend at 10 ug/mL in PBS with 0.1% BSA 30% TCA
Ehrlich reagent (2% w/v p-dimethylaminobenzaldehyde in glacial acetic acid)
Cell Titer 96 Aqueous Non-Radioactive Cell Proliferation Assay, MTS (Promega, Cat # G5430)
Cell Lines and Culture Conditions
Hela cancer cell lines were acquired from the American Type Culture Collection. Cells were maintained in phenol red free-RPMI1640 medium containing high glucose and L-glutamine (Invitrogen) supplemented with 10% fetal bovine serum (FBS; Invitrogen). Cell cultures were incubated at 37° C., 5% CO2, and 100% humidity.
Cell Treatment and Kynurenine Assay
Hela cells were seeded on 96-well plates (40,000 cells per well) and allowed to adhere for 5-6 hours. Cells were then treated with vehicle (DMSO) or with IDO inhibitor at a top dose of 30 μM (3-fold dilution all the way down to 1.5 nM). A final concentration of 100 ng/mL of human recombinant IFN-γ (R&D, 28-IF-100) was immediately added to the cells to stimulate IDO expression. Treated cells were then incubated for 20 hours at 37° C. At the end of the 20 h incubation, reactions were terminated by the addition of 30% TCA to each well. Plates were incubated for 30 minutes at 50° C. to hydrolyze N-formylkynurenine to kynurenine. Cells were centrifuged 10 minutes at 2400 rpm. 100 ul of supernatants were transferred to new 96 flat well plates and mixed with 100 ul Ehrlich reagent. The resulting solution was incubated 10 minutes at RT. Absorbance at 490 nm was read using Spectra Max 384 (Molecular Devices).

Human IDO1 = target: T2, Human IDO1 (Homo sapiens, UniProt P14902); assay: IDO Kynurenine Assay with Human IDO1/HEK293 Cells; assay type: cell-based; conditions: read-out: HEK human IDO-1 (IC50)
T2 construct: expressed in transfected cells; host or cells: HEK293
In short: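 HEK293 cells stably expressing human IDO1, in phenol red-free RPMI/10% FBS, exposed to compound for 20 h at 37 °C. Stopped with 0.2% TCA (50 °C, 30 min); kynurenine in supernatant detected with Ehrlich reagent, absorbance 490 nm.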

T1 sequence (P14902 whole entry): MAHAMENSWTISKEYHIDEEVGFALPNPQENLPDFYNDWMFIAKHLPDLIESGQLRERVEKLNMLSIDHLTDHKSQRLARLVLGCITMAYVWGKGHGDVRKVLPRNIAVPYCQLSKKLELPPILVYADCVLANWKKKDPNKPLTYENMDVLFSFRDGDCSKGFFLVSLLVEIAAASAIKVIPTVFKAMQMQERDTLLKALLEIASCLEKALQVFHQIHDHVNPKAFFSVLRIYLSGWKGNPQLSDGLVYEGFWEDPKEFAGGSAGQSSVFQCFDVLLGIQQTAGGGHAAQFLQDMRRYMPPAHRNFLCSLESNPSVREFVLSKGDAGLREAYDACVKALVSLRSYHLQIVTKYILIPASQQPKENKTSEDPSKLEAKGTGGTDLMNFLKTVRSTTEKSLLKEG
T2 sequence (P14902 whole entry): as above

IC50 (IDO [1]) [nM] | IC50 (IDO [2]) [nM] | IC50 (Human IDO1) [nM] | SMILES
20 | 10 | – | CCCN(CC1CC1)c1ccc(-c2ccccc2-c2nnn[nH]2)cc1NC(=O)Nc1ccc(C)cc1 [Example 59, 1-(4-((cyclopropylmethyl) (propyl)amino)-2′-(1H-tetrazol-5-yl)biphenyl-3-yl)-3-p-tolylurea]
490 | 90 | – | CN(c1ccc(-c2ccccc2C(=O)O)cc1NC(=O)Nc1ccccc1)C1CCCCC1 [Example 218, 4′-(cyclohexyl(methyl)amino)-3′-(3-phenylureido)biphenyl-2-carboxylic acid]
10 | 6.56 | – | Cc1ccc(NC(=O)Nc2cc(-c3ccccc3C(=O)O)ccc2N(C)C2CCCCC2)cc1 [Example 213, 4′-(cyclohexyl(methyl)amino)-3′-(3-p-tolylureido)biphenyl-2-carboxylic acid]
0.835 | 0.831 | – | CCN(c1ccc(-c2ccccc2-c2nnn[nH]2)cc1NC(=O)Nc1ccc(C)cc1)C1CCCCC1 [Example 216, 1-(4-(cyclohexyl(ethyl)amino)-2′-(1H-tetrazol-5-yl)biphenyl-3-yl)-3-p-tolylurea]
3590 | 3120 | – | COCCN(CCOC)c1ccc(-c2ccccc2C(=O)O)cc1NC(=O)Nc1ccc(C)cc1 [Example 56, 4′-(bis(2-methoxyethyl)amino)-3′-(3-p-tolylureido)biphenyl-2-carboxylic acid]
270 | 220 | – | COCCN(CCOC)c1ccc(-c2ccccc2-c2nnn[nH]2)cc1NC(=O)Nc1ccc(C)cc1 [Example 57, 1-(4-(bis(2-methoxyethyl)amino)-2′-(1H-tetrazol-5-yl)biphenyl-3-yl)-3-p-tolylurea]
9.05 | 6.56 | – | Cc1ccc(NC(=O)Nc2cc(-c3ccccc3C(=O)O)c(F)cc2N(C)C2CCCCC2)cc1 [Example 221, 4′-(cyclohexyl(methyl)ami-no)-2′-fluoro-5′-(3-p-tolylureido)biphenyl-2-carboxylic acid]
490 | 110 | – | Cc1cccc(NC(=O)Nc2cc(-c3ccccc3-c3nnn[nH]3)ccc2N(C)C2CCCCC2)c1 [Example 211, 1-(4-(cyclohexyl(methyl)amino)-2′-(1H-tetrazol-5-yl)biphenyl-3-yl)-3-m-tolylurea]
1470 | 440 | – | COc1ccc(-c2cc(NC(=O)Nc3ccc(C)cc3)c(N(C)C3CCCCC3)cc2F)cc1C(=O)O [Example 220, 4′-(cyclohexyl(methyl)ami-no)-2′-fluoro-4-methoxy-5′-(3-p-tolylureido)biphenyl-3-carboxylic acid]
80 | 10 | – | CN(c1ccc(-c2ccccc2C(=O)O)cc1NC(=O)Nc1ccccc1F)C1CCCCC1 [Example 219, 4′-(cyclohexyl(methyl)amino)-3′-(3-(2-fluorophenyl)ureido) biphenyl-2-carboxylic acid]
10 | 2.63 | – | Cc1ccc(NC(=O)Nc2cc(-c3ccccc3-c3nnn[nH]3)c(F)cc2N(C)C2CCCCC2)cc1 [Example 222, 1-(4-(cyclohexyl(methyl)ami-no)-6-fluoro-2′-(1H-tetrazol-5-yl)biphenyl-3-yl)-3-p-tolylurea]

More lines, now with the values behind:

SMILES | IC50 (IDO [1]) [nM] | IC50 (IDO [2]) [nM] | IC50 (Human IDO1) [nM]
Cc1ccc(NC(=O)Nc2cc(-c3ccccc3-c3nnn[nH]3)ccc2N(C)C2CCOCC2)cc1 [Example 50, 1-(4-(methyl(tetra-hydro-2H-pyran-4-yl)amino)-2′-(1H-tetrazol-5-yl)biphenyl-3-yl)-3-p-tolylurea] | 310 | 60 | –
Cc1ccc(NC(=O)Nc2cc(-c3ccccc3C(=O)O)ccc2NC2CCCCC2)cc1 [Example 48, 4′-(cyclohexyl-amino)-3′-(3-p-tolylureido)biphenyl-2-carboxylic acid] | 500 | 850 | –
Cc1ccc(NC(=O)Nc2cc(-c3ccccc3-c3nnn[nH]3)ccc2NC2CCCCC2)cc1 [Example 46, 1-(4-(cyclohexylamino)-2′-(1H-tetrazol-5-yl)biphenyl-3-yl)-3-p-tolylurea] | 130 | 90 | –
CCN(c1ccc(-c2ccccc2-c2nnn[nH]2)cc1NC(=O)Nc1ccccc1F)C1CCCCC1 [Example 53, 1-(4-(cyclohexyl (ethyl)amino)-2′-(1H-tetrazol-5-yl)biphenyl-3-yl)-3-(2-fluorophenyl) urea] | 3.45 | 0.772 | –
CN(c1ccc(-c2ccccc2-c2nnn[nH]2)cc1NC(=O)Nc1ccc(C(F)(F)F)cc1)C1CCCCC1 [Example 2, 1-(4-(Cyclohexyl(methyl)amino)-2′-(1H-tetrazol-5-yl)biphenyl-3-yl)-3-(4-(trifluoromethyl)phenyl)urea] | 90 | 20 | –
Cc1ccc(NC(=O)Nc2cc(-c3ccccc3-c3nnn[nH]3)ccc2N(C)C2CCCC2)cc1 [Example 3, 1-(4-(Cyclopentyl(methyl)amino)-2′-(1H-tetrazol-5-yl)biphenyl-3-yl)-3-p-tolylurea] | 60 | 10 | –
Cc1ccc(NC(=O)Nc2cc(-c3ccccc3C(=O)O)ccc2N(CC(C)C)CC(C)C)cc1 [Example 52, 4′-(diisobutyl-amino)-3′-(3-p-tolylureido) biphenyl-2-carboxylic acid] | 10 | 5.57 | –
Cc1ccc(NC(=O)Nc2cc(-c3ccccc3-c3nnn[nH]3)ccc2N2CCC[C@@H]3CCCC[C@@H]32)cc1 [Example 47, 1-(4-((4aS,8aS)-octahydroquinolin-1(2H)-yl)-2′-(1H-tetrazol-5-yl)biphenyl-3-yl)-3-p-tolylurea] | 40 | 10 | –
Cc1ccc(NC(=O)Nc2cc(-c3ccccc3-c3nnn[nH]3)ccc2N(CC(C)C)CC(C)C)cc1 [Example 1, 1-(4-(Diisobutylamino)-2′-(1H-tetrazol-5-yl)biphenyl-3-yl)-3-p-tolylurea] | 3.45 | 1.37 | 3.31
COC(CN(C)c1ccc(-c2ccccc2-c2nnn[nH]2)cc1NC(=O)Nc1ccc(C)cc1)OC [Example 55, 1-(4-((2,2-dimethoxyethyl) (methyl)amino)-2′-(1H-tetrazol-5-yl)biphenyl-3-yl)-3-p-tolylurea] | 230 | 110 | –

Reference: US9758492B2, “IDO inhibitors” (Bristol-Myers Squibb Company, priority 2013, dated 2017)
